Source: patent US11518805B2, “Binding inhibitor between TCTP dimer type IgE-dependent histamine releasing factor and receptor thereof, and use thereof” (EWHA UNIVERSITY—INDUSTRY COLLABORATION FOUNDATION, priority 2014, dated 2022)
“Also recorded” adds a separate entry of the source. Each block holds one molecule with its values, some of them ahead of it.

What was measured:
HRF [1] = test: HRF binding affinity of heptamer peptides by ELISA (alanine scan of p2); details: p2 and its substituted heptamers m1-m7
Description: In order to confirm the residues involved in the HRF binding affinity of the heptamer peptide of the present invention, the amino acid sequence of p2 was substituted with alanine (A), and only m5 was substituted with lysine (K). As a result, the following sequences were established: […]

Del-N11dTCTP = target: T1, Del-N11dTCTP (Rattus norvegicus, UniProt P63029); test: Inhibition of Del-N11dTCTP-induced IL-8 secretion by domain peptides in BEAS-2B cells; type: cell-based; details: Del-N11dTCTP 70 nM, peptide molar ratios 0~1, 24 hours, ELISA
T1 construct: made in house
T1 sequence (P63029 11-172 limits assumed): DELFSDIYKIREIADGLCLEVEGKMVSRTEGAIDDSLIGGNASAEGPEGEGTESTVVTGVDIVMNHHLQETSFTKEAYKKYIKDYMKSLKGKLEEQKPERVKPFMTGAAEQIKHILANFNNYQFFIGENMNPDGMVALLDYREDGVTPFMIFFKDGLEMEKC
Description: To investigate inhibitory effect of FL domain, Helix 2 domain, and Helix 3 domain on Del-N11dTCTP, the inventors synthesized FL domain (Ac-[…]-NH2) (SEQ. ID. NO: 1), Helix 2 domain (Ac-[…]-NH2) (SEQ. ID. NO: 11), and Helix 3 domain (Ac-[…]-NH2) (SEQ. ID. NO: 22) by using the synthetic peptides prepared with NH2-terminal acetylation and COOH-terminal amidation, followed by purification.
Particularly, BEAS-2B cells were treated with Del-N11dTCTP (70 nM) by the same manner as described in Experimental Example 1. At this time, the synthesized FL domain, Helix 2 domain, and Helix 3 domain were treated to the cells at different molar ratios (0˜1), followed by reaction for 30 minutes. Then, Del-N11dTCTP was added thereto. 24 hours later, the supernatant was obtained and the released IL-8 was quantified by ELISA.

HRF [2] = test: Phage clone ELISA for binding to immobilized HRF; details: wells coated with HRF or BSA (control)
Description: Particularly, HRF was dissolved in a coating buffer (0.1 M NaHCO 3, pH 8.6) at the concentration of 20 μg/ml, which was loaded in a polystyrene microtiter plate (50 ? /well), followed by coating at 4° C. for overnight and blocking non-specific binding with BSA. The plate was washed with 0.1% Tween/TBS (TBST) 6 times. […] The plate stood at room temperature for 1 hour. TBST was added thereto, and the plate stood for 5 minutes, followed by washing. The washing was performed once after one round of panning, 5 times after 2 and 3 rounds of panning, and 10 times after 4 rounds of panning. 50 ? of glycine/HCl buffer (pH 2.2) was added thereto, which stood for 5 minutes. Then, phages were eluted, and then neutralization was induced with 8 ? of 1 M Tris-HCl (pH 9.1). The eluted phage solution was added to 20 ? of ER2537 culture medium (OD600=0.5˜1), followed by culture in a 37° C. shaking incubator (rpm=200) for 2 hours. 100 ? of SB medium was added thereto, followed by culture for overnight with shaking (250 rpm). The culture solution was centrifuged at 10,000 rpm (4° C.) for 15 minutes. 100 ? of the obtained supernatant was added with 30 ? of 5×PEG/NaCl (20% PEG(w/v), 15% NaCl (w/v)), followed by dissolving for 5 minutes. The mixture was then left in ice for 30 minutes. The mixture was centrifuged at 10,000 rpm (4° C.) for 20 minutes and the supernatant was discarded. The obtained pellet was suspended in 1 ? of 3% BSA/TBS. After performing centrifugation at 14,000 rpm for 5 minutes, the supernatant was obtained and used for panning. Affinity purification and phage replication were repeated 4 times, followed by eluting phages. Each phage clone was obtained from the proper plate of the eluted phage, followed by ELISA. Those phage clones showing a specific affinity to HRF were separated, followed by sequencing to confirm the peptide sequence. Those phage display peptides showing dominant binding to HRF were selected and listed below:
That is, each phage plaque was added to 1 ? of the ER2537 culture medium (OD600=0.5˜1) cultured in SB medium, followed by culture in a 37° C. incubator (rpm=250) for 5 hours. 100 ? of each culture solution was added to 900 ? of SB medium, followed by culture for overnight. […]
Each phage solution separated above was diluted in an equal volume of 6% BSA/PBS, and 50 ? of the diluted solution was added to each well of the plastic well plate coated with HRF or BSA (control), which stood for 2 hours. […] After adding peroxidase substrate solution thereto (100 ? /well), OD405 was measured with an ELISA reader.
HRF was diluted serially by ⅕ fold each from the concentration of 20 μg/ ? […] The phage 2 solution diluted serially by ⅕ fold each (½, 1/10, 1/50, 1/250, and 1/1250 of the stock solution) was added thereto, followed by ELISA and OD405 was measured.

BEAS-2B cells [3] = test: IL-8 secretion by f-TCTP, Δ-dTCTP and Del-N11dTCTP in BEAS-2B cells; type: cell-based; details: protein at 1, 5 or 10 μg/ml, 24 hours, ELISA
Description: (§1) To investigate the IL-8 and GM-CSF secretory activity of f-TCTP, Δ-dTCTP, and Del-N11dTCTP in BEAS-2B cells, the present inventors compared the activity of f-TCTP, Δ-dTCTP, and Del-N11dTCTP by measuring the secretion of IL-8 in BEAS-2B cells.
(§2) Particularly, BEAS-2B cells were cultured in a 48-well plate until the confluency reached to 70%. Then, the cells were washed with 1% penicillin-streptomycin/BEBM (Clonetics) twice. Each recombinant protein of the Δ-dTCTP separated in Example 1 of the invention, and the f-TCTP and Del-N11dTCTP constructed by the method described in Korean Patent Application No. 2006-0007663 was added thereto at the concentration of 1 μg/ ? , 5 μg/ ? , or 10 μg/ ? 24 hours later, the supernatant was obtained and the released IL-8 and GM-CSF were quantified by ELISA.

BEAS-2B cells [4] = test: GM-CSF secretion by f-TCTP, Δ-dTCTP and Del-N11dTCTP in BEAS-2B cells; type: cell-based; details: protein at 1, 5 or 10 μg/ml, 24 hours, ELISA
Description: as §1, §2

[5] = tested on: dTBP2 (dTCTP binding peptide 2); test: Affinity of TCTP proteins to immobilized biotinylated dTBP2 (ELISA); details: biotinylated dTBP2 0.01-10 μm on streptavidin plate; protein 0.2 μg/ml; ELISA 450/570 nm
Description: To investigate the affinity to dTBP2 of f-TCTP, Δ-dTCTP, and Del-N11dTCTP of the present invention, biotin was conjugated to the COOH-terminus of dTBP2 known to bind to HRF, followed by purification. The purified protein was immobilized in the plastic well coated with streptavidin, to which f-TCTP, Δ-dTCTP, and Del-N11dTCTP were added. Then, the binding strength of each protein was investigated.
Particularly, 50 ? of the biotinylated dTBTP2 dissolved in a buffer (TBS [25 mM Tris, 150 mM NaCl, pH 7.2], 0.1% BSA, 0.05% Tween-20) at different concentrations of 0.01, 0.1, 1, and 10 μm was added to Reacti-Bind Streptavidin Coated Polystyrene Plates (PIERCE), followed by reaction at room temperature for 2 hours. The plate was washed with a washing buffer three times. Each of f-TCTP, Δ-dTCTP, and Del-N11dTCTP was dissolved in TBS at the concentration of 0.2 μg/ ? . 60 ? of the mixture was added to each well of the plate, followed by reaction for 1 hour. The plate was washed with a washing buffer three times. 100 ? of anti-HRF rabbit antibody (Bio-Rad) diluted in a buffer (1:2000) was added to each well of the plate, which stood at room temperature for 30 minutes. The plate was washed with a washing buffer three times and with TBS once, to which HRP-conjugated anti-rabbit antibody (1:2000) was added (100 ? /well), which stood at room temperature for 30 minutes. The plate was washed with a washing buffer three times and with TBS once, to which […] (PIERCE), the peroxydase substrate solution, was added (100 ? /well). Color development was measured at 450 nm and 570 nm using an ELISA reader (Bio-Rad), and affinity was determined by the difference.

HRF binding affinity (rank order) (HRF [1]): p2, m6>m7>m3>m2>fm5>M1>m4
Molecule: AYVYPSM [m1]

HRF binding affinity (rank order) (HRF [1]): p2, m6>m7>m3>m2>fm5>M1>m4
Molecule: WAVYPSM [m2]

HRF binding affinity (rank order) (HRF [1]): p2, m6>m7>m3>m2>fm5>M1>m4
Molecule: WYAYPSM [m3]

HRF binding affinity (rank order) (HRF [1]): p2, m6>m7>m3>m2>fm5>M1>m4
Molecule: WYVAPSM [m4]

HRF binding affinity (rank order) (HRF [1]): p2, m6>m7>m3>m2>fm5>M1>m4
Molecule: WYVYKSM [m5]

HRF binding affinity (rank order) (HRF [1]): p2, m6>m7>m3>m2>fm5>M1>m4
Molecule: WYVYPAM [m6]

HRF binding affinity (rank order) (HRF [1]): p2, m6>m7>m3>m2>fm5>M1>m4
Molecule: WYVYPSA [m7]

The remaining lines, values behind:

Molecule: Ac-KPERVKPFMTGAAEQIKHILANFN-NH2 [Helix 3 domain, ID; NO: 22]
inhibition of IL-8 secretion induced by Del-N11dTCTP (Del-N11dTCTP): inhibited more strongly by FL domain and Helix 2 domain than by Helix 3 domain

Molecule: LVTYPLP (IgE-dependent histamine-releasing factor binding peptide) [ph1, ID; NO: 23]
binding of phage clone to HRF (ELISA, OD405) (HRF [2]): specifically bind to HRF

Molecule: WEFPGWM (IgE-dependent histamine-releasing factor binding peptide3) [ph4, ID; NO: 25]
binding of phage clone to HRF (ELISA, OD405) (HRF [2]): specifically bind to HRF

Molecule: f-TCTP: full-length TCTP, monomer form (SEQ. ID. NO: 17)
secretion of IL-8 (BEAS-2B cells [3]): Del-N11dTCTP was superior to f-TCTP and Δ-dTCTP
secretion of GM-CSF (BEAS-2B cells [4]): Del-N11dTCTP was superior to f-TCTP and Δ-dTCTP
affinity to dTBP2 [5]: Del-N11dTCTP had higher dTBP2 affinity than f-TCTP and Δ-dTCTP

B1: Δ-dTCTP: dimer form of FL domain-deleted TCTP (protein)
chain: MIIYRDLISHDEMFSDIYKIREIADGLCLEVEGKMVSGGITGVDIVMNHHLQETSFTKEAYKKYIKDYMKSIKGKLEEQRPERVKPFMTGAAEQIKHILANFKNYQFFIGENMNPDGMVALLDYREDGVTPYMIFFKDGLEMEKCLEHHHHHH
secretion of IL-8 (BEAS-2B cells [3]): Del-N11dTCTP was superior to f-TCTP and Δ-dTCTP
secretion of IL-8 (BEAS-2B cells [3]; listed as A-dTCTP): could not induce IL-8 secretion
secretion of GM-CSF (BEAS-2B cells [4]): Del-N11dTCTP was superior to f-TCTP and Δ-dTCTP
affinity to dTBP2 [5]: low affinity; also recorded: Del-N11dTCTP had higher dTBP2 affinity than f-TCTP and Δ-dTCTP
